{
  "source": "patent US20220088031A1",
  "about": "“METHODS AND COMPOSITIONS FOR TREATING RESISTANT AND RECURRENT FORMS OF CANCER” (Health Research, Inc., priority 2019, published 2022)",
  "assay_type_in_all_cases": "cell-based, human",
  "key": {"E006AA cells [1]": {"test_system": "E006AA cells", "experiment": "Cell death quantification, Trypan blue exclusion assay", "experimental": "Cell viability assay: PCa cells (5×10^4 cells/well) were seeded on 6-well cell culture plates and incubated with DOC (1-20 nM) for 24 hrs. Floating and attached cells were collected using trypsinization. Live and dead cells were counted under a light microscope using a trypan blue exclusion assay."}, "LNCaP cells [2]": {"test_system": "LNCaP cells", "experiment": "Cell cycle analysis, PI staining", "conditions": "DOC 24 hrs; CA PCa cells", "experimental": "(§1) Cell cycle analysis: Cell cycle phases in LNCaP and E006AA cells were analyzed using Propidium Iodide (PI) staining. Cells were treated with DOC for 24 hrs, fixed in 70% ethanol, stained with PI staining solution (0.1% sodium citrate, 0.2 mg/ml RNAse, 0.05 mg/ml propidium iodide, 0.2% NP 40, 1N HCl), and analyzed using flow cytometry. Data were analyzed using FACS-DIVA software and represented as % cells in each cell cycle phase."}, "E006AA cells [3]": {"test_system": "E006AA cells", "experiment": "Cell cycle analysis, PI staining", "conditions": "DOC 24 hrs; AA PCa cells", "experimental": "as §1"}, "LNCaP cells [4]": {"test_system": "LNCaP cells", "experiment": "Immunoblot analysis of CC and Drp1 in cytosolic and mitochondrial fractions", "conditions": "CA PCa cells", "experimental": "Subcellular fractionation for the preparation of cytosolic and mitochondrial fractions: Cells were seeded on 15 cm cell culture plates followed by treatment with various compounds for the preparation of cytosolic and mitochondrial fractions as described. Cells were harvested via gentle scraping, washed twice with ice cold 1×PBS, and resuspended in homogenization buffer (20 mM HEPES, pH 7.4; 10 mM KCl; 1.5 mM MgCl2; 1 mM EDTA; 1 mM EGTA; 250 mM sucrose) supplemented with freshly added 1× protease inhibitor cocktail and 1 mM DTT. Cells were incubated in homogenization buffer for 30 min in ice and homogenized using a dounce homogenizer (˜25 strokes using pestle A). Cell homogenates were pre-cleared of unbroken cells and debris using centrifugation at 1000 g for 10 min. The supernatant was collected in new tubes and centrifuged at 12000 rpm for 20 min to obtain a mitochondrial pellet, which was washed 3 times with homogenization buffer and lysed in NP40 buffer, and stored as the mitochondrial fraction. […]\nImmunoblotting: Immunoblotting was performed as described previously. […] Protein content was quantified using a micro BCA protein estimation kit (Thermo Scientific, Waltham, Mass.; Cat #23235). […] After washing with PBS-T, proteins were detected using Clarity chemiluminescent reagent (BioRad, Hercules, Calif.; Cat #1705061) and X-Ray films (ASI, Fort Lauderdale, Fla.; Cat #XR1570). […]"}, "E006AA cells [5]": {"test_system": "E006AA cells", "experiment": "Clonogenic assay", "conditions": "exposure of DOC; AA PCa cells", "experimental": "(§2) Clonogenic assay: PCa cells were seeded in each well of 6 well cell culture plates. Cells were treated and plates were incubated in a CO2 cell culture incubator for 6 more days. Colonies were fixed in 10% formalin first and stained with 0.5% crystal violet solution. Plates were dried and pictures were captured using a Gel documentation system and Coomassie blue filter (Bio Rad, Hercules, Calif.)."}, "LNCaP, DU145, PC-3 cells": {"test_system": "LNCaP, DU145, PC-3 cells", "experiment": "Clonogenic assay", "conditions": "exposure of DOC; CA PCa cells", "experimental": "as §2"}, "E006AA cells [6]": {"test_system": "E006AA cells", "experiment": "Caspase-3 (DEVDase) activity assay", "conditions": "DOC 24 hrs; AA PCa cells compared to CA PCa cells", "experimental": "Caspase-3 (DEVDase) activity assay: PCa cell lysates prepared in NP40 lysis buffer were incubated with DEVD-AFC (caspase-3 substrate) at 37° C. for 90 min in caspase activity assay buffer (50 mM HEPES pH 7.4, 150 mM NaCl, 1% CHAPS, 1 mM EDTA, 1 mM DTT, 50% glycerol). Fluorescence intensity was detected using a Synergy microplate reader at excitation and emission wavelengths of 400 nm and 508 nm, respectively. Arbitrary fluorescence units were normalized with protein content of cell lysates and represented as fold change compared to control groups."}, "E006AA cells [7]": {"test_system": "E006AA cells", "experiment": "Immunoblot analysis of CC in cytosolic and mitochondrial fractions", "conditions": "DOC 24 hrs; AA PCa cells", "experimental": "Subcellular fractionation for the preparation of cytosolic and mitochondrial fractions: Cells were seeded on 15 cm cell culture plates followed by treatment with various compounds for the preparation of cytosolic and mitochondrial fractions as described. Cells were harvested via gentle scraping, washed twice with ice cold 1×PBS, and resuspended in homogenization buffer (20 mM HEPES, pH 7.4; 10 mM KCl; 1.5 mM MgCl2; 1 mM EDTA; 1 mM EGTA; 250 mM sucrose) supplemented with freshly added 1× protease inhibitor cocktail and 1 mM DTT. Cells were incubated in homogenization buffer for 30 min in ice and homogenized using a dounce homogenizer (˜25 strokes using pestle A). Cell homogenates were pre-cleared of unbroken cells and debris using centrifugation at 1000 g for 10 min. The supernatant was collected in new tubes and centrifuged at 12000 rpm for 20 min to obtain a mitochondrial pellet, which was washed 3 times with homogenization buffer and lysed in NP40 buffer, and stored as the mitochondrial fraction. The supernatant was ultra-centrifuged to obtain purified cytosol.\n(§3) Immunoblotting: Immunoblotting was performed as described previously. Protein lysates were prepared using a lysis in NP-40 buffer (50 mM Tris-HCl pH 7.4, 150 mM NaCl, 1 mM EDTA, 1 mM EGTA, 1% NP-40) supplemented with protease and phosphatase inhibitor cocktail. Protein content was quantified using a micro BCA protein estimation kit (Thermo Scientific, Waltham, Mass.; Cat #23235). Protein samples were resolved on 4-20% Criterion gels, transferred on nitrocellulose membranes (BioRad, Hercules, Calif.) and subjected to immunoblotting. Membranes were blocked in 5% fat free dry milk (Blotto, Santa Cruz, Dallas, Tex.; Cat #sc-2324) prepared in PBS-T (Tween-20) and incubated overnight in primary antibodies (1:1000 dilution) at 4° C. with continuous shaking. After washing with PBS-T, membranes were incubated in HRP conjugated anti-mouse or anti-rabbit secondary antibody at room temperature for 1 hr. After washing with PBS-T, proteins were detected using Clarity chemiluminescent reagent (BioRad, Hercules, Calif.; Cat #1705061) and X-Ray films (ASI, Fort Lauderdale, Fla.; Cat #XR1570). Membranes were stripped using stripping buffer and probed with HRP conjugated beta-actin antibody to ensure equal loading of proteins."}, "[8]": {"test_system": "p-Drp1^S616 in LNCaP cells", "experiment": "Immunoblot of p-Akt^S473 and p-Drp1^S616 after AKT inhibitor", "conditions": "Wort 1 μM", "experimental": "as §3"}},
  "data": [
    {"smiles": "O=C(O)C(=O)CBr", "note": "[3-BrPA, 3-bromopyruvate]", "values": [
      {"measurement": "cell death", "setting": "E006AA cells [1]; in combination with DOC (24 hrs)", "result": "induced dose-dependent cell death"}
    ]},
    {"smiles": "CC(=O)O[C@@]12CO[C@@H]1C[C@H](O)[C@@]1(C)C(=O)[C@H](O)C3=C(C)[C@@H](OC(=O)[C@H](O)[C@@H](NC(=O)OC(C)(C)C)c4ccccc4)C[C@@](O)([C@@H](OC(=O)c4ccccc4)[C@H]21)C3(C)C", "note": "[DOC, Docetaxel]", "values": [
      {"measurement": "effect on the cell cycle", "setting": "LNCaP cells [2]", "result": "cell cycle arrest at G2/M phase"},
      {"measurement": "effect on the cell cycle", "setting": "E006AA cells [3]", "result": "cell cycle arrest at G2/M phase"},
      {"measurement": "CC expression and release from mitochondria to cytosol", "setting": "LNCaP cells [4]; DOC 24 hrs", "result": "induced CC expression and release from mitochondria to the cytosolic compartment"},
      {"measurement": "Drp1 localization", "setting": "LNCaP cells [4]; in response to DOC", "result": "translocated to mitochondria"},
      {"measurement": "colony forming ability (CFA)", "setting": "E006AA cells [5]", "result": "not AA PCa"},
      {"measurement": "colony forming ability (CFA)", "setting": "LNCaP, DU145, PC-3 cells", "result": "abolished CFA"},
      {"measurement": "DOC-induced caspase activation", "setting": "E006AA cells [6]", "result": "reduced in various AA PCa cells compared to CA PCa cells"},
      {"measurement": "CC expression and release from mitochondria to cytosol", "setting": "E006AA cells [7]", "result": "not in AA PCa cells"},
      {"measurement": "DOC-induced cell death", "setting": "E006AA cells [1]; DOC 24 hrs, AA PCa cells compared to CA PCa cells", "result": "reduced in various AA PCa cells compared to CA PCa cells"}
    ]},
    {"smiles": "COC[C@H]1OC(=O)c2coc3c2[C@@]1(C)C1=C(C3=O)[C@@H]2CCC(=O)[C@@]2(C)C[C@H]1OC(C)=O", "note": "[wortmanin]", "values": [
      {"measurement": "Drp1 phosphorylation at S616", "setting": "[8]", "result": "Inhibition of Drp1 phosphorylation at S616"}
    ]}
  ]
}
